± gives the standard error.
Tests used:
621-102 (TSC2-deficient) [1] = assay: relative viability vs DMSO; higher = less cytotoxic; conditions: serum: 10% FBS, 72 h
621-103 (TSC2-rescued) = assay: as above; conditions: serum: 10% FBS, 72 h
621-102 (TSC2-deficient) [2] = assay: relative viability vs DMSO (fraction); higher = less cytotoxic; conditions: serum: 0.1% FBS, 72 h
UMB1949 (TSC2-deficient) = assay: as above; conditions: serum: 0.1% FBS, 72 h;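 note: renal angiomyolipoma cell lines screened in 384-well plates, viability normalized per plate to DMSO-treated cells, each plate carrying 50 nM rapamycin and 1 µM staurosporine controls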

| SMILES | relative viability (621-102 (TSC2-deficient) [1]; 0.0001 µM) [%] | relative viability (621-102 (TSC2-deficient) [1]; 0.001 µM) [%] | relative viability (621-102 (TSC2-deficient) [1]; 0.01 µM) [%] | relative viability (621-102 (TSC2-deficient) [1]; 0.1 µM) [%] | relative viability (621-102 (TSC2-deficient) [1]; 1 µM) [%] | relative viability (621-102 (TSC2-deficient) [1]; 10 µM) [%] | relative viability (621-103 (TSC2-rescued); 0.0001 µM) [%] | relative viability (621-103 (TSC2-rescued); 0.001 µM) [%] | relative viability (621-103 (TSC2-rescued); 0.01 µM) [%] | relative viability (621-103 (TSC2-rescued); 0.1 µM) [%] | relative viability (621-103 (TSC2-rescued); 1 µM) [%] | relative viability (621-103 (TSC2-rescued); 10 µM) [%] | relative viability (621-102 (TSC2-deficient) [2]; 0.0128 nM) | relative viability (621-102 (TSC2-deficient) [2]; 0.064 nM) | relative viability (621-102 (TSC2-deficient) [2]; 0.32 nM) | relative viability (621-102 (TSC2-deficient) [2]; 1.6 nM) | relative viability (621-102 (TSC2-deficient) [2]; 8 nM) | relative viability (621-102 (TSC2-deficient) [2]; 40 nM) | relative viability (621-102 (TSC2-deficient) [2]; 200 nM) | relative viability (621-102 (TSC2-deficient) [2]; 1000 nM) | relative viability (621-102 (TSC2-deficient) [2]; 5000 nM) | relative viability (UMB1949 (TSC2-deficient); 0.0128 nM) | relative viability (UMB1949 (TSC2-deficient); 0.064 nM) | relative viability (UMB1949 (TSC2-deficient); 0.32 nM) | relative viability (UMB1949 (TSC2-deficient); 1.6 nM) | relative viability (UMB1949 (TSC2-deficient); 8 nM) | relative viability (UMB1949 (TSC2-deficient); 40 nM) | relative viability (UMB1949 (TSC2-deficient); 200 nM) | relative viability (UMB1949 (TSC2-deficient); 1000 nM) | relative viability (UMB1949 (TSC2-deficient); 5000 nM) |
| --- | --- | --- | --- | --- | --- | --- | --- | --- | --- | --- | --- | --- | --- | --- | --- | --- | --- | --- | --- | --- | --- | --- | --- | --- | --- | --- | --- | --- | --- | --- |
| Cn1c(Nc2ccc(C(F)(F)F)cc2)nc2cc(Oc3ccnc(-c4ncc(C(F)(F)F)[nH]4)c3)ccc21 [RAF265] | 111 ± 3.9 | 107 ± 4.3 | 101 ± 2.5 | 92.9 ± 1.1 | 60.4 ± 1.5 | 41.5 ± 2 | 99.71 ± 0.95 | 102 ± 2.3 | 100.7 ± 0.72 | 92.7 ± 2.6 | 78.2 ± 2.2 | 64.1 ± 0.7 | 1.01 | 1.13 | 1.04 | 1.07 | 0.927 | 0.488 | 0.0802 | 0.0481 | 0.00102 | 1.1 | 1.02 | 1.13 | 1.06 | 1.19 | 1.11 | 0.216 | 0.00279 | 0.00183 |
| CCCCc1nc2cc(/C=C/C(=O)NO)ccc2n1CCN(CC)CC [SB939] | 106 ± 2.5 | 116 ± 4.8 | 108.59 ± 0.1 | 96.3 ± 2 | 71.42 ± 0.65 | 35.9 ± 0.61 | 98.4 ± 1.2 | 97.63 ± 0.65 | 96.6 ± 2.1 | 96.7 ± 1.1 | 46.1 ± 2.5 | 2.74 ± 0.067 | 1.27 | 0.957 | 0.868 | 0.884 | 0.789 | 0.608 | 0.351 | 0.121 | 0.00937 | 1.04 | 1.11 | 1.25 | 1.22 | 1.03 | 0.31 | 0.0114 | 0.00881 | 0.00358 |
| Cn1cc(-c2ccc3nnc(Sc4ccc5ncccc5c4)n3n2)cn1 [SGX-523] | 104 ± 1.6 | 94.8 ± 6.4 | 103 ± 2.1 | 98.3 ± 4.6 | 103.8 ± 0.28 | 97.5 ± 4.1 | 102 ± 1.5 | 96.42 ± 0.71 | 105 ± 2.4 | 102.4 ± 0.49 | 102.2 ± 0.92 | 97.9 ± 1.9 | 1.13 | 1.07 | 0.971 | 1.13 | 1.06 | 0.984 | 1.01 | 0.991 | 0.776 | 1.09 | 1.05 | 1.17 | 1.23 | 1.03 | 1.11 | 1.19 | 1.04 | 0.718 |
| CC1(C)CC(=O)c2c(C(F)(F)F)nn(-c3ccc(C(N)=O)c(N[C@H]4CC[C@H](O)CC4)c3)c2C1 [SNX-2112] | 60.2 ± 9.5 | 66.4 ± 8.2 | 45.4 ± 5.8 | 21.9 ± 0.44 | 18.9 ± 2.6 | 14.8 ± 0.6 | 112 ± 4 | 111 ± 1.2 | 84.4 ± 1.3 | 7.98 ± 0.57 | 6.9 ± 0.43 | 6.78 ± 0.53 | 0.829 | 0.471 | 0.381 | 0.19 | 0.232 | 0.0887 | 0.0644 | 0.0224 | 0.0194 | 0.771 | 0.292 | 0.334 | 0.0113 | 0.00964 | 0.00549 | 0.00248 | 0.00255 | 0.00394 |
